# Results taken from patent US12459951B2, “Compounds that interact with RAS superfamily proteins for treatment of cancers, inflammatory diseases, rasopathies, and fibrotic disease” (SHY Therapeutics, LLC, priority 2022, dated 2025).
# Legend:
# Test in all cases: Proliferation Assay (Cell Viability Assay)
# Type in all cases: cell-based
# [1] = test system: MM.1R (expressing wild type KRAS); details: Homo sapiens, read-out: MM.1R IC50 (nM) Multiple Myloma
# Procedure, shortened: (§1)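 Cells plated at 2000–5000/well overnight, then treated 2–4 days at 37 °C, 5% CO2 with compound at 10 μM single dose or serial dilutions for IC50, in 0.3% DMSO and 10% FBS. Viability read by CellTiter 96 Aqueous One (MTS); % proliferation inhibition calculated from raw data.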
# [2] = test system: GP2d (expressing KRas G12D mutant); details: Homo sapiens, Proliferation assay, read-out: GP2d IC50 (nM) Colorectal
# Procedure, shortened: as §1
# A375 (wild type Kras) = details: Homo sapiens, A-375; Proliferation assay, A375; read-out: A375 IC50 (nM) Melanoma
# Procedure, shortened: as §1
# [3] = test system: BT-549 (expressing wild type KRAS); details: Homo sapiens, BT-549; Proliferation assay, BT549; read-out: BT549 IC50 (nM) TNBC
# Procedure, shortened: as §1
# [4] = test system: NCI-H358 (expressing KRas G12C mutant); details: Homo sapiens; Proliferation assay, NCI-H358; read-out: NCI-H358 IC50 (nM) NSCLC
# Procedure, shortened: as §1
IC50 [1] [nM],IC50 (A375 (wild type Kras)) [nM],IC50 [3] [nM],IC50 [4] [nM],Structure (SMILES),IC50 [2] [nM]
< 1,> 50,> 50,10 to 50,"Cc1c(-c2ccn(C)n2)cn2nc(-c3nccn3C)nc(Nc3cc4c(cn3)CCO4)c12 [Compound 221, N-(5-Methyl-2-(1-methyl-1H-imidazol-2-yl)-6-(1-methyl-1H-pyrazol-3-yl)pyrrolo[2,1-f][1,2,4]triazin-4-yl)-2,3-dihydrofuro[3,2-c]pyridin-6-amine]",> 50
< 1,> 50,10 to 50,10 to 50,"Cc1c(-c2ccn(C)n2)cn2nc(-c3nccn3C)nc(Nc3cc(N4CCOCC4)ccn3)c12 [Compound 222, 5-Methyl-2-(1-methyl-1H-imidazol-2-yl)-6-(1-methyl-1H-pyrazol-3-yl)-N-(4-morpholinopyridin-2-yl)pyrrolo[2,1-f][1,2,4]triazin-4-amine]",> 50
< 1,> 50,10 to 50,> 50,"COc1cc(Nc2nc(-c3nccn3C)nn3cc(-c4ccn(C)n4)c(C)c23)ncc1C [Compound 235, N-(4-Methoxy-5-methylpyridin-2-yl)-5-methyl-2-(1-methyl-1H-imidazol-2-yl)-6-(1-methyl-1H-pyrazol-3-yl)pyrrolo[2,1-f][1,2,4]triazin-4-amine]",> 50
< 1,> 50,10 to 50,> 50,"COc1cc(Nc2nc(-c3nccn3C)nn3cc(-c4ccn(C)n4)c(C)c23)ncc1C1CC1 [Compound 238, N-(5-Cyclopropyl-4-methoxypyridin-2-yl)-5-methyl-2-(1-methyl-1H-imidazol-2-yl)-6-(1-methyl-1H-pyrazol-3-yl)pyrrolo[2,1-f][1,2,4]triazin-4-amine]",> 50
